Common to all, as to format: cell-based
Assay [1] deals with T1, human PAR2 (Homo sapiens, UniProt P55085).
T1 sequence (P55085 26-397): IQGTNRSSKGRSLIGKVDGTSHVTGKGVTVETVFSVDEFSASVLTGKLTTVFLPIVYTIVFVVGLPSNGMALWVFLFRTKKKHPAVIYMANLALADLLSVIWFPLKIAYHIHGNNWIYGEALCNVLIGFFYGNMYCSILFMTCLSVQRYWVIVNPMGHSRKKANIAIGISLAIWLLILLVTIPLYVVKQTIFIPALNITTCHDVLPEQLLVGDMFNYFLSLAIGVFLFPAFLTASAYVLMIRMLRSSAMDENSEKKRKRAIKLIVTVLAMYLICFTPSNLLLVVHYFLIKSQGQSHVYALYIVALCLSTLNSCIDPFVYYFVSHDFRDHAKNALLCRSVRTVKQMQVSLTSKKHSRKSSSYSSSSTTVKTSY
Put plainly: Receptor Selection and Amplification Technology (R-SAT) functional receptor assay. On the set-up: expressed in transfected cells; host or cells: NIH3T3 cells, pSI-derived mammalian expression vector. Particulars: for EC50: NIH3T3 cells transfected with PAR2, PAR2 activation, negative log of EC50 in Molar; for Emax: NIH3T3 cells transfected with PAR2, percent maximal activation relative to SLIGRL, read-out: % Efficacy. As to the method:
The functional receptor assay, Receptor Selection and Amplification Technology (R-SAT), was used to investigate the pharmacological properties of known and novel PAR2 compounds. R-SAT is disclosed in U.S. Pat. Nos. 5,707,798, 5,912,132, and 5,955,281, all of which are hereby incorporated herein by reference in their entirety, including any drawings.
Briefly, NIH3T3 cells were grown in 96 well tissue culture plates to 70-80% confluence. Cells were transfected for 16-20 h with plasmid DNAs using Polyfect (Qiagen Inc.) as per manufacturer's protocols. R-SATs were generally performed with 4 ng/well of receptor and 20 ng/well of β-galactosidase plasmid DNA. All receptor constructs used were in the pSI-derived mammalian expression vector (Promega Inc) as described previously. The PAR2 gene was amplified by PCR from genomic DNA using oligodeoxynucleotide primers based on the published sequence (GenBank Accession # Z49993 and Z49994). For large-scale transfections, cells were transfected for 16-20 h, then trypsinized and frozen in DMSO. Frozen cells were later thawed, plated at ˜10,000 cells per well of a 96 half-area well plate that contained drug. With both methods, cells were then grown in a humidified atmosphere with 5% ambient CO2 for five days. Media was then removed from the plates and marker gene activity was measured by the addition of the β-galactosidase substrate o-nitrophenyl β-D-galactopyranoside (ONPG, in PBS with 0.5% NP-40). The resulting colorimetric reaction was measured in a spectrophotometric plate reader (Titertek Inc.) at 420 nm. All data were analyzed using the computer program XLFit (IDBSm). Efficacy is the percent maximal activation compared to activation by a control compound, the PAR2 activating hexapeptide SLIGRL (serine-leucine-isoleucine-glycine-arginine-leucine). pEC50 is the negative of the log (EC50), where EC50 is the calculated concentration in Molar that produces 50% maximal activation.
These experiments provide a molecular profile, or fingerprint, for each of these agents at human PAR2.
Efficacy is relative to that of SLIGRL.

Assay [2] has as its target T1, human PAR2. As to the kind of experiment: Determination of changes in inositol phosphates in transfected tsA cells. Particulars: inositol phosphate hydrolysis, transfected tsA cells (transformed HEK293), 45 min with ligand; for Emax: TS/A, read-out: % Efficacy. As for the experimental part: Seed tsA cells (a transformed HEK293 cell line) at 10,000 cells/0.1 ml per well of 96 well plates at 37 C in a humidified 5% CO2 incubator in DMEM supplemented with 10% fetal calf serum, penicillin (100 units/ml) and streptomycin ([…]) and grown overnight.
Transfect the cells with plasmid DNAs coding receptors or G-protein helpers when needed using PolyFect according to the RSAT protocol described previously. At 18-20 h post-transfection, the medium is removed and the cells are labeled overnight with 2 uCi/ml myo-[2-3H] inositol (0.1 ml/well) freshly made in the culture medium.
Remove the medium and wash cells with Hank's Balanced Salt Solutions (HBSS) containing 1 mM CaCl2, 1 mM MgCl2, 20 mM LiCl and 0.1% BSA. The cells are then incubated with ligands for 45 min at 37 C (0.1 ml/well) and the reaction is stopped by exchanging the buffer with 150 ul/well ice-cold 20 mM formic acid. Add 50 ul/well 0.2M ammonium and store plates at −80 C or process samples immediately.
To separate total [3H] inositol phosphates (IPs) ion-exchange chromatography columns are loaded with 200 ul of AG 1-X8 resin suspension (50% resin and 50% water) and the cell extracts were applied to the columns. Wash the columns with 1 ml 40 mM ammonium hydroxide (pH9) and elute [3H] IPs into the 2 ml deep-well blocks with 0.4 ml 2M ammonium format/0.1M formic acid. Wash the columns with 0.6 ml water. Transfer the eluates into 7 ml scintillation vials and add 5 ml liquid scintillation cocktail. Mix well, leave the vials in the dark for at least 4 h and count on LS 6500 Multi-purpose Scintillation Counter (3 min/vial). This procedure collects IP1, IP2 and IP3.
As shown in Table 3 and FIG. 4, these experiments have shown these agents act at human PAR2 to stimulate inositol phosphate hydrolysis.

For assay [3], the target named is T1, human PAR2. As to the kind of experiment: Determination of changes in cytosolic calcium in transfected CHO-K1 cells. To be noted: intracellular calcium mobilization; for EC50: CHO-K1 cells transfected with PAR2, Fura-2; for Emax: CHO-K1 cells transfected with PAR2, response compared to SLIGRL at 100 nM, read-out: % Efficacy. As to the method: 1. CHO-K1 cells transfected with PAR2 or a control receptor at a density 1-3×10^6 cells/ml are washed with phosphate-buffered saline.
2. Cells are loaded with 2 μM Fura-2 and analyzed with respect to the rise in intracellular calcium in the presence or absence of varying concentration of compound.
3. The response is compared to that elicited by the application of the standard reference ligand SLIGRL when tested at 100 nM.
Intracellular free calcium concentrations are calculated using the formula:
where Kd for Fura-2 is 224 nM, Fmax is the fluorescence in the presence of 0.04% Triton-X100 and Fmin is the fluorescence obtained after the addition of 5 mM EGTA in 30 mM Tris-HCl, pH7.4.
As shown in Table 2 and FIG. 3, these experiments have shown these agents act at human PAR2 to stimulate intracellular calcium mobilization.
Background: Calcium assays in cells follow changes in intracellular calcium, usually with a dye or a luminescent sensor.

The structures appear in SMILES notation.

The term EC50 denotes the concentration giving half of the maximal effect. `C/C(=N\NC(=O)C(NC(=O)c1ccccc1)c1n[nH]c(=O)c2ccccc12)c1cccc(C#N)c1` (stereo not drawn) [Compound 29, N-[2-{(2E)-2-[1-(3-cyanophenyl)ethylidene]hydrazino}-2-oxo-1-(4-oxo-3,4-dihydro-1-phthalazinyl)ethyl]benzamide]: in assay [1], the EC50 was 316 nM and the Emax amounted to 132%.
The like results for `CC/C(=N\NC(=O)C(NC(=O)c1ccccc1)c1n[nH]c(=O)c2ccccc12)c1cccc(Br)c1` (stereo not drawn) [Compound 25, N-[2-{(2E)-2-[1-(3-bromophenyl)propylidene]hydrazino}-2-oxo-1-(4-oxo-3,4-dihydro-1-phthalazinyl)ethyl]benzamide] were, in that order, 501 nM and 111%.
In the case of `C/C(=N\NC(=O)C(NC(=O)c1ccccc1)c1n[nH]c(=O)c2ccccc12)c1cc(C)cc(C)c1` (stereo not drawn) [Compound 43, N-[2-{(2E)-2-[1-(3,5-dimethylphenyl)ethylidene]hydrazino}-2-oxo-1-(4-oxo-3,4-dihydro-1-phthalazinyl)ethyl]benzamide], the Emax is 130% in assay [2], 85% in assay [3] and 122% in assay [1]. Also, the EC50 in assay [2] was 10000 nM; in assay [3] it was 7940 nM; in assay [1] it was 79.4 nM.
Consider `C/C(=N\NC(=O)C(NC(=O)c1ccccc1)c1n[nH]c(=O)c2ccccc12)c1cccc(C)c1` (stereo not drawn) [Compound 31, N-[2-{(2E)-2-[1-(3-methylphenyl)ethylidene]hydrazino}-2-oxo-1-(4-oxo-3,4-dihydro-1-phthalazinyl)ethyl]benzamide], for which, in assay [1], the EC50 is 316 nM and the Emax was found to be 118%.
Turning to `C/C(=N\NC(=O)C(NC(=O)c1ccccc1)c1n[nH]c(=O)c2ccccc12)c1cccc(Cl)c1` (stereo not drawn) [Compound 28, N-[2-{(2E)-2-[1-(3-chlorophenyl)ethylidene]hydrazino}-2-oxo-1-(4-oxo-3,4-dihydro-1-phthalazinyl)ethyl]benzamide], in assay [1], a half-maximal response (EC50) required 158 nM and the Emax was 112%.
For `C/C(=N\NC(=O)C(NC(=O)c1ccccc1)c1n[nH]c(=O)c2ccccc12)c1cccc(Br)c1` (stereo not drawn) [Compound 3, N-[2-{(2E)-2-[1-(3-bromophenyl)ethylidene]hydrazino}-2-oxo-1-(4-oxo-3,4-dihydro-1-phthalazinyl)ethyl]benzamide], the figures for the Emax in assay [2], in assay [3] and in assay [1] were 120%, 72% and 98%, respectively. Moreover, the results for the EC50 in assay [2], in assay [3] and in assay [1] were 2510 nM, 3980 nM and 126 nM, respectively.
With `C/C(=N\NC(=O)C(NC(=O)c1ccccc1)c1n[nH]c(=O)c2ccccc12)c1cccc(C(F)(F)F)c1` (stereo not drawn) [Compound 27, N-[2-oxo-1-(4-oxo-3,4-dihydro-1-phthalazinyl)-2-((2E)-2-{1-[3-(trifluoromethyl)phenyl]ethylidene}hydrazino)ethyl]benzamide], in assay [1], it took 251 nM to reach a half-maximal effect (EC50) and the Emax is 77%.
Regarding `COc1cccc(/C(C)=N/NC(=O)C(NC(=O)c2ccccc2)c2n[nH]c(=O)c3ccccc23)c1` (stereo not drawn) [Compound 6, N-[2-{(2E)-2-[1-(3-methoxyphenyl)ethylidene]hydrazino}-2-oxo-1-(4-oxo-3,4-dihydro-1-phthalazinyl)ethyl]benzamide], in assay [1], a half-maximal response (EC50) required 794 nM and the Emax was 79%.

The values are drawn from patent US20080318960A1, “PAR2-modulating compounds and their use” (priority 2005, published 2008).
